Consider ten compounds from patent publication US12448388B2, “PRMT5 inhibitors and uses thereof” (Gilead Sciences, Inc., priority 2023, dated 2025).

Each structure is given as a SMILES string. Values after ≈ are worked out from the molar mass of the structure shown. Like-named read-outs stand apart in the source and are kept apart here.

Data set [1] can be described thus: MDR1/BCRP assay: permeability in cPgp-KO-MDCK-WT cells. The format is in vitro ADME. Particulars: dog, pH 7.4. How it is done: The cells were maintained in an incubator at 37° C., 90% humidity, and 5% CO2 until reaching confluence over 5 days in 96-well transwell plates. Experiments were conducted using an HBSS donor buffer (Invitrogen) containing 10 mM HEPES and 15 mM glucose, adjusted to pH 7.4. The receiver well contained HBSS buffer supplemented with 1% BSA, 10 mM HEPES, and 15 mM glucose, and the pH was adjusted to 7.4. TEER values were measured to assess membrane integrity after an initial equilibration with BSA-free transport buffer for 15 minutes. The experiment was started by adding dosing solutions containing test compounds at 1 μM. Cells were dosed on the apical (A) side or basolateral (B) side at 100 μl and 200 μl, respectively, to determine forward (A to B) and reverse (B to A) permeability. At the 2-hour time point, 50 μl samples were collected from the receiver compartment. Each compound was tested in 2 separate replicate wells for each condition. All samples were immediately collected into plates, and 50 μL of acetonitrile was added. Subsequently, 350 μl of 30:70 methanol: acetonitrile containing internal standard was added to precipitate proteins and stabilize the test compounds. To test for non-specific binding and compound instability, the total amount of the drug was quantified at the end of the experiment and compared to the material present in the original dosing solution as a percentage of the recovery. All samples were analyzed by LC-MS/MS using electrospray ionization.
The apparent permeability, Papp, and % recovery were calculated as follows: […]

Data set [2] concerns HCT116 MTAP-deleted cell lines. The data set is described as follows: Cell viability assay (CellTiter-Glo, 7 days), HCT116 MTAP-deleted. The format is cell-based. Particulars: for Selectivity: HCT116 WT CC50 versus HCT116 MTAP^del CC50; for CC50: Homo sapiens, HCT116 MTAP-deleted; for plasma-adjusted CC50 (paCC50): paCC50 = CC50-HCT116-MTAP^del * (% free CCM/% free human plasma). Summed up:
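First, compounds are serially diluted in DMSO and dispensed into plates, which are frozen until seeding. Next, cells are added and incubated 7 days at 37 °C, 5% CO2, 90% humidity. Finally, CellTiter-Glo reagent is added and luminescence is measured to derive CC50.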

Data set [3] can be described thus: Cell viability assay (CellTiter-Glo, 7 days), HCT116 WT. The format is cell-based. The note with it: human, HCT116 WT cells, 7 days of treatment, CTG. How it is done: Control compounds were analyzed in parallel each time for quality control. In Brief, on Day -1, a serial dilution of stock compounds in DMSO was performed using BioMek liquid handlers and dispensed using Echo acoustic dispenser into 384 well plates. Both tool compounds and sample compounds were spotted in the same plate for a dose response of PRMT5 inhibitors. Compound plates were stored as frozen until the cells were ready for seeding. […] After equilibrating the plate in room temperature, the cells were incubated for 7 days inside the sealed incubator set at 37° C. with 90% humidity and 5% CO2. On Day 7, the viability of cells was measured using a CTG assay kit (CellTitre-Glo;Promega cat no. G7573). Shortly, 40 μl per well of luminescent cell viability assay reagent were dispensed using EL460 liquid dispenser 5 μl cassette. CTG luminescence signal was measured using an EnVision plate reader (PerkinElmer) in accordance with manufacturer's instruction. […] Selectivity with * is artificially high due to limited solubility of the compound hampering accurate measurement of WT CC50.

Data set [4] is described as follows: PBS solubility (kinetic solubility from DMSO stocks). It is filed as physicochemical. Particulars: 22 °C, aqueous buffer, kinetic from dmso stock; 1x PBS pH 7.4, 1.0% DMSO, 24-hour incubation at ambient temperature. The procedure: Buffer Preparation: 1×PBS, 7.4: Phosphate Buffered Saline solution 10×, PBS (Fisher Bioreagent, part number BP399-500) 50 mL was added to approximately 450 mL HPLC grade H2O. The volume of the solution was then adjusted to 500 mL for a total dilution factor of 1:10 and a final PBS concentration of 1×. The pH of the final solution was measured and found to be 7.4.
The final DMSO Concentration is 1.0% and maximum theoretical compound concentration is 100 μM (assuming stock concentration of 10 mM). The filter plate was sealed. Following 24-hour incubation at ambient temperature (20.8-24.0° C.), the samples were vacuum filtered, and the filtrates were collected in a 96 well polypropylene plate for analysis. The collection plate was sealed for analysis. Filtrates were injected into the nitrogen detector for quantification on Analiza's Automated Discovery Workstation. The results are reported here in both μM and μg/mL.
Calculation of Results: The equimolar nitrogen response of the detector is calibrated using standards which span the dynamic range of the instrument from 0.08 to 4500 μg/ml nitrogen. The filtrates were quantified with respect to this calibration curve. The calculated solubility values are corrected for background nitrogen present in the DMSO, and the media used to prepare the samples. All reported values for compounds containing adjacent nitrogen atoms in a ring structure should be increased by ˜25%. […] The solubility results presented assume that the samples were free of nitrogen containing impurities and are stable under the assay conditions.

[5] abbreviates: HCT-116, 168 h, 7 days of treatment, CTG, read-out: CC50-HCT116-MTAP^del.
[6] abbreviates: HCT-116, cell viability, class symbols, read-out: CC50.

The compound `Nc1nc2cnc(C(=O)N3C[C@H](F)CC4Oc5cc(C(F)(F)F)ccc5[C@@H]43)cc2n2cncc12` (mixture of isomers) [Ff-113, Rac-(4-aminoimidazo[1,5-a]pyrido[3,4-e]pyrazin-8-yl)((3R,4aS,9bS)-3-fluoro-7-(trifluoromethyl)-3,4,4a,9b-tetrahydrobenzofuro[3,2-b]pyridin-1(2H)-yl)methanone] had a Papp A→B at 2 h, 1 µM in data set [1] of 12.3 ×10⁻⁶ cm/s. The Selectivity in data set [2] stood at 86. The CC50 is 30 nM in data set [2] (setting [5]) and under 100 nM in data set [2] (setting [6]). In data set [3], this compound displayed a CC50 at 7 days of 2570 nM. This compound came in with a solubility at 24 h in data set [4] of 1.1 µM (≈ 0.52 µg/mL).
Take `Nc1nc2cnc(C(=O)N3CCC[C@@H]4Oc5cc(C(F)(F)F)c(F)cc5[C@@H]43)cc2n2cncc12` [Ff-115, (4-aminoimidazo[1,5-a]pyrido[3,4-e]pyrazin-8-yl)((4aS,9bS)-8-fluoro-7-(trifluoromethyl)-3,4,4a,9b-tetrahydrobenzofuro[3,2-b]pyridin-1(2H)-yl)methanone]: the Papp A→B at 2 h, 1 µM in data set [1] came to 7.6 ×10⁻⁶ cm/s. This compound came in with a Selectivity in data set [2] of 48. In data set [2] (HCT-116), this compound came in with a plasma-adjusted CC50 (paCC50) of 202 nM. Besides, the cytotoxic concentration (CC50) in data set [2] (setting [5]) is 10 nM; in data set [2] (setting [6]), under 100 nM. The compound further showed a CC50 at 7 days in data set [3] of 478 nM. In addition, the solubility at 24 h in data set [4] is under 1 µM.
In the case of `Nc1nc2cc(F)c(C(=O)N3CCO[C@@H]4Cc5cc(OC(F)F)c(F)cc5[C@@H]43)cc2n2cncc12` [Ff-174, (4-amino-7-fluoroimidazo[1,5-a]quinoxalin-8-yl)((4aS,9aR)-7-(difluoromethoxy)-6-fluoro-2,3,9,9a-tetrahydroindeno[2,1-b][1,4]oxazin-4(4aH)-yl)methanone], the Papp A→B at 2 h, 1 µM in data set [1] was determined as 17.8 ×10⁻⁶ cm/s. The Selectivity in data set [2] came to 63. Also, the CC50 in data set [2] (setting [5]) is 36 nM; in data set [2] (setting [6]), under 100 nM. The compound also yielded a CC50 at 7 days in data set [3] of 2280 nM. Further, in data set [4], the solubility at 24 h is under 1 µM.
On to `C[C@@H]1C[C@@H]2Oc3cc(C(F)(F)F)ccc3[C@@H]2N(C(=O)c2cc3c(cn2)nc(N)c2cncn23)C1` [Ff-252, (4-aminoimidazo[1,5-a]pyrido[3,4-e]pyrazin-8-yl)((3R,4aS,9bS)-3-methyl-7-(trifluoromethyl)-3,4,4a,9b-tetrahydrobenzofuro[3,2-b]pyridin-1(2H)-yl)methanone], for which the Papp A→B at 2 h, 1 µM in data set [1] worked out at 13.6 ×10⁻⁶ cm/s. Moreover, in data set [2], the Selectivity is on record as 41. This compound gave a plasma-adjusted CC50 (paCC50) in data set [2] (HCT-116) of 269 nM. For the same compound, the CC50 in data set [2] (setting [5]) is 13 nM; in data set [2] (setting [6]), under 100 nM. Moreover, the CC50 at 7 days in data set [3] came out at 534 nM. The compound further yielded a solubility at 24 h in data set [4] of under 1 µM.
In data set [1], `Cc1ncc2c(N)nc3ccc(C(=O)N4CCC[C@@H]5Oc6cc(C(F)(F)F)ccc6[C@@H]54)cc3n12` [Ff-345, (4-amino-1-methylimidazo[1,5-a]quinoxalin-8-yl)((4aS,9bS)-7-(trifluoromethyl)-3,4,4a,9b-tetrahydrobenzofuro[3,2-b]pyridin-1(2H)-yl)methanone] yielded a Papp A→B at 2 h, 1 µM of 10.2 ×10⁻⁶ cm/s. Also, the Selectivity in data set [2] was 113. Also, the results for the CC50 in data set [2] (setting [5]) and in data set [2] (setting [6]) were 32 nM and under 100 nM, respectively. In data set [3], this compound returned a CC50 at 7 days of 3620 nM. Also, in data set [4], the solubility at 24 h is under 1 µM.
For `N#Cc1cc2nc(N)c3cncn3c2cc1C(=O)N1CCC[C@@H]2Oc3cc(C(F)(F)F)ccc3[C@@H]21` [Ff-346, 4-amino-8-((4aS,9bS)-7-(trifluoromethyl)-1,2,3,4,4a,9b-hexahydrobenzofuro[3,2-b]pyridine-1-carbonyl)imidazo[1,5-a]quinoxaline-7-carbonitrile], the Papp A→B at 2 h, 1 µM in data set [1] came out at 10.8 ×10⁻⁶ cm/s. The compound also returned a Selectivity in data set [2] of 51. Also, in data set [2] (HCT-116), the plasma-adjusted CC50 (paCC50) amounted to 155 nM. Besides, the results for the CC50 in data set [2] (setting [5]) and in data set [2] (setting [6]) were 6 nM and under 100 nM, respectively. In addition, in data set [3], the CC50 at 7 days worked out at 305 nM. In data set [4], this compound had a solubility at 24 h of 4.2 µM (≈ 2.01 µg/mL).
In data set [1], `Cc1ncc2c(N)nc3cc(F)c(C(=O)N4CCC[C@@H]5Oc6nc(C(F)(F)F)ccc6[C@@H]54)cc3n12` [Ff-363, (4-amino-7-fluoro-1-methylimidazo[1,5-a]quinoxalin-8-yl)((4aS,9bS)-7-(trifluoromethyl)-3,4,4a,9b-tetrahydrofuro[2,3-b:4,5-b′]dipyridin-1(2H)-yl)methanone] yielded a Papp A→B at 2 h, 1 µM of 13.4 ×10⁻⁶ cm/s. Further, the Selectivity in data set [2] stood at 127. The compound also yielded a plasma-adjusted CC50 (paCC50) in data set [2] (HCT-116) of 196 nM. In addition, the CC50 is 16 nM in data set [2] (setting [5]) and under 100 nM in data set [2] (setting [6]). In data set [3], this compound displayed a CC50 at 7 days of 2040 nM. The solubility at 24 h in data set [4] is 21.8 µM (≈ 10.6 µg/mL).
Take `Cc1ncn2c1c(N)nc1cc(F)c(C(=O)N3CCC[C@@H]4Oc5cc(C(F)(F)F)ccc5[C@@H]43)cc12` [Ff-379, (4-amino-7-fluoro-3-methylimidazo[1,5-a]quinoxalin-8-yl)((4aS,9bS)-7-(trifluoromethyl)-3,4,4a,9b-tetrahydrobenzofuro[3,2-b]pyridin-1(2H)-yl)methanone]: in data set [1], the Papp A→B at 2 h, 1 µM turned out to be 10 ×10⁻⁶ cm/s. The compound also came in with a Selectivity in data set [2] of 56. Besides, the CC50 is 13 nM in data set [2] (setting [5]) and under 100 nM in data set [2] (HCT-116, cell viability assay, class symbols, read-out: CC50). Further, the CC50 at 7 days in data set [3] worked out at 730 nM. The same compound gave a solubility at 24 h in data set [4] of under 1 µM.
With `Cc1ncc2c(N)nc3cnc(C(=O)N4CC[C@H]5C[C@@H]4c4ccc(OC(F)(F)F)cc4O5)cc3n12` [Ff-698, (4-amino-1-methylimidazo[1,5-a]pyrido[3,4-e]pyrazin-8-yl)((2S,6R)-9-(trifluoromethoxy)-3,4-dihydro-2H-2,6-methanobenzo[b][1,5]oxazocin-5(6H)-yl)methanone], the apparent permeability from apical to basolateral (Papp A→B) at 2 h, 1 µM in data set [1] came out at 11.4 ×10⁻⁶ cm/s. The Selectivity in data set [2] is on record as 96. For the same compound, the plasma-adjusted CC50 (paCC50) in data set [2] (HCT-116) stood at 295 nM. Moreover, the cytotoxic concentration (CC50) in data set [2] (setting [5]) was 15 nM. Besides, in data set [3], half-maximal cytotoxicity (CC50 at 7 days) was put at 1440 nM. This compound also returned a solubility at 24 h in data set [4] of under 1 µM.
Consider `Cc1ncc2c(N)nc3cnc(C(=O)N4CC[C@H]5C[C@@H]4c4ccc(C(F)(F)F)c(F)c4O5)cc3n12` [Ff-699, (4-amino-1-methylimidazo[1,5-a]pyrido[3,4-e]pyrazin-8-yl)((2S,6R)-10-fluoro-9-(trifluoromethyl)-3,4-dihydro-2H-2,6-methanobenzo[b][1,5]oxazocin-5(6H)-yl)methanone], for which the Papp A→B at 2 h, 1 µM in data set [1] worked out at 10.9 ×10⁻⁶ cm/s. This compound had a Selectivity in data set [2] of 74. The plasma-adjusted CC50 (paCC50) in data set [2] (HCT-116) came out at 237 nM. Besides, in data set [2] (setting [5]), the CC50 was 15 nM. The compound also had a CC50 at 7 days in data set [3] of 1110 nM. In addition, the concentration in solution in data set [4] (solubility at 24 h) was 2.6 µM (≈ 1.26 µg/mL).
